Legend:
[1] = target: Serine/threonine-protein kinase tousled-like 2 (Homo sapiens) (UniProt Q86UE8); assay: Inhibition of human TLK2 in HL-60 cells lysate assessed as reduction of labeling of acyl-phosphate ATP probe at 100 nM; type: cell-free
[2] = target: RAF proto-oncogene serine/threonine-protein kinase (Homo sapiens) (UniProt P04049); assay: Inhibition of human RAF1 in HL-60 cells lysate assessed as reduction of labeling of acyl-phosphate ATP probe at 100 nM; type: cell-free
[3] = target: Cyclin-dependent kinase 2 (Homo sapiens) (UniProt P24941); assay: Inhibition of human CDK2 in HL-60 cells lysate assessed as reduction of labeling of acyl-phosphate ATP probe at 100 nM; type: cell-free
HL-60 = assay: Inhibition of human CLK1/CLK4 in HL-60 cells lysate assessed as reduction of labeling of acyl-phosphate ATP probe at 100 nM
[4] = target: Tyrosine-protein kinase CSK (Homo sapiens) (UniProt P41240); assay: Inhibition of human CSK in HL-60 cells lysate assessed as reduction of labeling of acyl-phosphate ATP probe at 100 nM; type: cell-free
Tyrosine-protein kinase CSK (Homo sapiens), sequence (P41240 2-450 limits assumed): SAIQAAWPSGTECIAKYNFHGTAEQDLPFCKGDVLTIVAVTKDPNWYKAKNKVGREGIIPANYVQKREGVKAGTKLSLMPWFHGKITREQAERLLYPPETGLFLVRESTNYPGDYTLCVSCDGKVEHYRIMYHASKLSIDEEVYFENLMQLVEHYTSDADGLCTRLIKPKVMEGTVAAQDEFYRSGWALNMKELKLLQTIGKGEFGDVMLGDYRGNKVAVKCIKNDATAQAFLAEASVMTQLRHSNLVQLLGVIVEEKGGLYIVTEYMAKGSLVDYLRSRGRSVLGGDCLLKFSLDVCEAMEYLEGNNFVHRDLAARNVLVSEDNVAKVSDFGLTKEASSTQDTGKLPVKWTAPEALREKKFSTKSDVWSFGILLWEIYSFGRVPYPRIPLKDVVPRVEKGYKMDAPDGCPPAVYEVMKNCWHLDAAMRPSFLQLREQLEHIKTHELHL

[5] = target: Tyrosine-protein kinase BTK (Homo sapiens) (UniProt Q06187); assay: Inhibition of human BTK in HL-60 cells lysate assessed as reduction of labeling of acyl-phosphate ATP probe at 100 nM; type: cell-free
Tyrosine-protein kinase BTK (Homo sapiens), sequence (Q06187 whole entry): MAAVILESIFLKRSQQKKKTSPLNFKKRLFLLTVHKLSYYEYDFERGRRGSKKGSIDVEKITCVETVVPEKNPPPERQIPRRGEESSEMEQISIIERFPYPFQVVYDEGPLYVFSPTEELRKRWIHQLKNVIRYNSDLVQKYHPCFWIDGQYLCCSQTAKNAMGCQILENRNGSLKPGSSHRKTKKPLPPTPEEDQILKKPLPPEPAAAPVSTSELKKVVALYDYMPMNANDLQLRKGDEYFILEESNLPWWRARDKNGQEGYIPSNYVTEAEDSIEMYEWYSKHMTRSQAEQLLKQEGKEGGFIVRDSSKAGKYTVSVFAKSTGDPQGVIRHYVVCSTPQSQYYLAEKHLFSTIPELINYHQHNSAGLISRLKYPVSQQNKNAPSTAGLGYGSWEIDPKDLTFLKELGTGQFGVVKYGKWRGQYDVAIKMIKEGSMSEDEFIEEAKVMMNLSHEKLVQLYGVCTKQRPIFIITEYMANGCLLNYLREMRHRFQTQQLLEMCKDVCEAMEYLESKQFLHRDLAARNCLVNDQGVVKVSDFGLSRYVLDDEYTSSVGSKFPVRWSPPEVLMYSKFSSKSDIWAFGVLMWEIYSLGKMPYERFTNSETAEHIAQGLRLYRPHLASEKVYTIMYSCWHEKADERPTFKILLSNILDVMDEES

[6] = target: T1, Serine/threonine-protein kinase tousled-like 1 (Homo sapiens) (UniProt Q9UKI8); assay: Inhibition of human TLK1 in HL-60 cells lysate assessed as reduction of labeling of acyl-phosphate ATP probe at 100 nM; type: cell-free
T1 sequence (whole entry): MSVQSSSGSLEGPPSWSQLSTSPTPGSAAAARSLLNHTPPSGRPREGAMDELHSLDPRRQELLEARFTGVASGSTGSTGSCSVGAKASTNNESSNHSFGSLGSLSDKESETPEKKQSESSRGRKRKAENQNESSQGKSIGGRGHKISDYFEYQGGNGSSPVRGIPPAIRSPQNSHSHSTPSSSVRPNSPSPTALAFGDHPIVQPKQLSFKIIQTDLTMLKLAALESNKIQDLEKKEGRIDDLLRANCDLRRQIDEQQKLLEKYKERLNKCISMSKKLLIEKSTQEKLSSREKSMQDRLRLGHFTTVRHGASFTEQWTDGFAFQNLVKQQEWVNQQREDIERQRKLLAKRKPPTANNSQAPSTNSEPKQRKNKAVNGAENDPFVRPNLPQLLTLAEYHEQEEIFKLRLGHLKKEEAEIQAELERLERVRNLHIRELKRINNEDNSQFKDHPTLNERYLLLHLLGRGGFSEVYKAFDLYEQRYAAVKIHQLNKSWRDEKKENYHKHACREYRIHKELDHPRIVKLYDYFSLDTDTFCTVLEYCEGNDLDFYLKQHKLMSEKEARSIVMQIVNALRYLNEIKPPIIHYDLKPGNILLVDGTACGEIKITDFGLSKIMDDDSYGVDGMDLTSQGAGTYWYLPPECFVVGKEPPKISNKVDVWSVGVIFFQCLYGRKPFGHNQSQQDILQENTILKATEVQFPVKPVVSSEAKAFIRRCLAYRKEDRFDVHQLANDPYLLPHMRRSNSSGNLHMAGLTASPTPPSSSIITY

[7] = target: T2, Dual specificity mitogen-activated protein kinase kinase 6 (Homo sapiens) (UniProt P52564); assay: Inhibition of human MAP2K6 in HL-60 cells lysate assessed as reduction of labeling of acyl-phosphate ATP probe at 100 nM; type: cell-free
T2 sequence (whole entry): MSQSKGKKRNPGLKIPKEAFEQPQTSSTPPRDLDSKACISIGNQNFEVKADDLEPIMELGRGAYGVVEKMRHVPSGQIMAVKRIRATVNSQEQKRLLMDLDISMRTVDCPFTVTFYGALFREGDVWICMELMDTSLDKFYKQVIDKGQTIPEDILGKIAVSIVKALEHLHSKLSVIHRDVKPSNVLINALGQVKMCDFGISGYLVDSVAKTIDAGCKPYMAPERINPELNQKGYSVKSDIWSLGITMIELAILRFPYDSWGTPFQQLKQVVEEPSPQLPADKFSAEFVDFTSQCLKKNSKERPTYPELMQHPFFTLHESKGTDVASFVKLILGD

[8] = target: T3, Eukaryotic translation initiation factor 2-alpha kinase 3 (Homo sapiens) (UniProt Q9NZJ5); assay: Inhibition of human PEK in HL-60 cells lysate assessed as reduction of labeling of acyl-phosphate ATP probe at 100 nM; type: cell-free
T3 sequence (whole entry): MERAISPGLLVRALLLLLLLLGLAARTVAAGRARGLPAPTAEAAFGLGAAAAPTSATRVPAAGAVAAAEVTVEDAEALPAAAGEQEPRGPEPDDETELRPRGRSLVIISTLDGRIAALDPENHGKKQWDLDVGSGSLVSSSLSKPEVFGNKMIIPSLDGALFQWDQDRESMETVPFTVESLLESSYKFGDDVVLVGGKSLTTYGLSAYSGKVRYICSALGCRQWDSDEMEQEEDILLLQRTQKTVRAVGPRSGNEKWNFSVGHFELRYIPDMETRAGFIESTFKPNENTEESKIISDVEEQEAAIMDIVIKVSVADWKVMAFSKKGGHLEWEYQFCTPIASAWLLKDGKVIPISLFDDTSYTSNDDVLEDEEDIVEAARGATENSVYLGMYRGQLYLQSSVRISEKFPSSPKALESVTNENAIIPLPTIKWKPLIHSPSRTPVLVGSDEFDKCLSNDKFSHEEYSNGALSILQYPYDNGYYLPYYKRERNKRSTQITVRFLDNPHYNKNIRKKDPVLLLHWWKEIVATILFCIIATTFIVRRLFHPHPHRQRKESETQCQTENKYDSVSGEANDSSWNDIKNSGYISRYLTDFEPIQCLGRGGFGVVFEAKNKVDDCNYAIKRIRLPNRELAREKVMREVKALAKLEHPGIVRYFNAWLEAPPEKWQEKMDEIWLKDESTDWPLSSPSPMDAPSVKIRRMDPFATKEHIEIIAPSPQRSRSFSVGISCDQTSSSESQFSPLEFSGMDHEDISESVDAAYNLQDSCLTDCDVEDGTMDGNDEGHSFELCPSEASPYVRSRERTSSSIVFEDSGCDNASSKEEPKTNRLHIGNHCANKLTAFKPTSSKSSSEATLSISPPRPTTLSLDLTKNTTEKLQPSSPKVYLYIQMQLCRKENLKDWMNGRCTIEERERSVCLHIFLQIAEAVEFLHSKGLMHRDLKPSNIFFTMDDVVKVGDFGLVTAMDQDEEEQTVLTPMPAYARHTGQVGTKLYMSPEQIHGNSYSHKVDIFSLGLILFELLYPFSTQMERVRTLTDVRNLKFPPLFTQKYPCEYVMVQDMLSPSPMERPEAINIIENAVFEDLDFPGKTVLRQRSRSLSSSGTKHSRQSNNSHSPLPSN

RAF proto-oncogene serine/threonine-protein kinase (Homo sapiens), sequence (P04049 whole entry): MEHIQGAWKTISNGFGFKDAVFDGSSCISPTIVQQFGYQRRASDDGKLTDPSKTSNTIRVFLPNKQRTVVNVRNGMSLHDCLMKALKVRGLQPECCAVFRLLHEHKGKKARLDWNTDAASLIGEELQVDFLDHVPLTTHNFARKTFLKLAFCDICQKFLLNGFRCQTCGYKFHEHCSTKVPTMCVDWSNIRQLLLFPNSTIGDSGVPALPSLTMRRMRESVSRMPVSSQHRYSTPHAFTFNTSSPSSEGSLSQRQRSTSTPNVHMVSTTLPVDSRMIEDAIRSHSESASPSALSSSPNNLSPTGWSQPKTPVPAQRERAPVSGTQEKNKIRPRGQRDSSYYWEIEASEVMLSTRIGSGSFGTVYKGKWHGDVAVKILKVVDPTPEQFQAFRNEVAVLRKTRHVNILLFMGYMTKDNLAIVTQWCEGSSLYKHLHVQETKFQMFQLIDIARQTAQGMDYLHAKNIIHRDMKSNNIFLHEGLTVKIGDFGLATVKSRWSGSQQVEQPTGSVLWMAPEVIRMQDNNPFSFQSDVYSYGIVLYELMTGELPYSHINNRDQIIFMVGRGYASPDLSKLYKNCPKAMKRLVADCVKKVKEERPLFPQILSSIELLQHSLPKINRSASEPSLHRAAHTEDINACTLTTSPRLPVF
Serine/threonine-protein kinase tousled-like 2 (Homo sapiens), sequence (Q86UE8 whole entry, looked up): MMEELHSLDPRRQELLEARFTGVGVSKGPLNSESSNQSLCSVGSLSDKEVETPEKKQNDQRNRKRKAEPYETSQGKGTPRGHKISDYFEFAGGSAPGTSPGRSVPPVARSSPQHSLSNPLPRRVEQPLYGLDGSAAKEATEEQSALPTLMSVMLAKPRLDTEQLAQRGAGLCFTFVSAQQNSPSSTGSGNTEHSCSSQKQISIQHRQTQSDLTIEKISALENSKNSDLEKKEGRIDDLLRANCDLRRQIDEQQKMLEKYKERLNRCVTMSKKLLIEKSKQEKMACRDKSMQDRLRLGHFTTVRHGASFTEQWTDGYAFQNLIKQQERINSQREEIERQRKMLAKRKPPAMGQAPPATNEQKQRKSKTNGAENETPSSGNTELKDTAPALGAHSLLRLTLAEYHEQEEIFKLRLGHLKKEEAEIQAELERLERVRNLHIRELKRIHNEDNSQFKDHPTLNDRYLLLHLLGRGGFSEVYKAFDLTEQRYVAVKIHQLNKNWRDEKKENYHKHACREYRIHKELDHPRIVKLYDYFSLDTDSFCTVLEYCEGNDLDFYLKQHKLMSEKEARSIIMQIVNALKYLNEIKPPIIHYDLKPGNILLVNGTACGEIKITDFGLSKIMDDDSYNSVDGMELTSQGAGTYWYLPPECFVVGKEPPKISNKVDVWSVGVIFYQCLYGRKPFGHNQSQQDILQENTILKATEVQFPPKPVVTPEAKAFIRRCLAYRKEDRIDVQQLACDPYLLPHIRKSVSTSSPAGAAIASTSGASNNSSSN

C[C@H]1COc2c(NCCCn3cccn3)c(F)c(N)c3c(=O)c(C#N)cn1c23
< 35%: inhibition [1] | inhibition [2] | inhibition [3] | inhibition at 0.1 µM (HL-60) | inhibition [4] | inhibition [5] | inhibition [6] | inhibition [7] | inhibition [8]

C[C@H]1COc2c(NCCCc3ccccn3)c(F)c(N)c3c(=O)c(C(=O)O)cn1c23
< 35%: inhibition [1] | inhibition [2] | inhibition [3] | inhibition at 0.1 µM (HL-60) | inhibition [4] | inhibition [5] | inhibition [6] | inhibition [7] | inhibition [8]

C[C@H]1COc2c(NCCCn3cccn3)c(F)c(N)c3c(=O)c(C(=O)O)cn1c23
< 35%: inhibition [1] | inhibition [2] | inhibition [3] | inhibition at 0.1 µM (HL-60) | inhibition [4] | inhibition [5] | inhibition [6] | inhibition [7] | inhibition [8]

C[C@H]1COc2c(NCCCc3ccccn3)c(F)c(N)c3c(=O)c(C#N)cn1c23
< 35%: inhibition [1] | inhibition [2] | inhibition [3] | inhibition at 0.1 µM (HL-60) | inhibition [4] | inhibition [5] | inhibition [6] | inhibition [7] | inhibition [8]

Source: ChEMBL document CHEMBL1938230, “6-Position optimization of tricyclic 4-quinolone-based inhibitors of glycogen synthase kinase-3β: discovery of nitrile derivatives with picomolar potency” (Bioorg Med Chem Lett, 2012)
